From US12496350B2 (Ohio State Innovation Foundation, priority 2018, dated 2025) come the findings set out here.

One data set addresses T1, NHERF2-PDZ2 (N2P2) (Homo sapiens, UniProt Q15599).
T1 construct: PDZ1 (N2P1), and NHERF2-PDZ2 domains (N2P2)
Description: Direct fluorescence polarization binding of FITC-labeled peptide. As to conditions: 50 nM FITC-labeled peptide, FP. The procedure:
(§1) Binding Affinity and Selectivity. The potency and selectivity of inhibitor 29 was first assessed by comparing its binding affinity to the four PDZ domains of CAL, NHERF1, and NHERF2, which are involved in the trafficking of CFTR to and from the plasma membrane. Peptides were labeled with FITC at the N-terminus through a miniPEG linker and tested for binding to various PDZ domains by fluorescence polarization (FP). FITC-labeled peptide (50 nM) was incubated with varying concentrations of PDZ domain in PBS (pH 7.4) containing 0.01% Triton X-100 and 2 mM TCEP for 1 h at room temperature. After 1 h, 20 μL of each sample was pipetted into 384-well black-on-black microplates and fluorescence polarization was measured by using a TECAN Infinite M1000 plate reader. Data was processed using GraphPad PRISM ver. 8.0.
Background: Fluorescence polarisation rises when a labelled molecule tumbles more slowly, as on binding a larger partner.

Another data set addresses T2, NHERF2-PDZ1 (N2P1) (Homo sapiens, UniProt Q15599).
T2 construct: PDZ1 (N2P1), and NHERF2-PDZ2 domains (N2P2)
The data set is described as above. Particulars: 50 nM FITC-labeled peptide, FP. Here is the method: as §1

The next data set concerns the target T3, NHERF1-PDZ1 (N1P1) (Homo sapiens, UniProt O14745).
T3 sequence (O14745 14-94 limits assumed): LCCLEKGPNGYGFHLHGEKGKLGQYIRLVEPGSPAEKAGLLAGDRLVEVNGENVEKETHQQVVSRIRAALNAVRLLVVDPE
Described as above. Here is the method:
as §1

The test system of another data set is HeLa cells. Description: Cellular uptake efficiency by flow cytometry. It is filed as cell-based. Particulars: for Uptake (% rel.): HeLa cells, 5 μM, 2 h, relative to CPP9 (100%). The procedure:
(§2) Cellular Uptake Efficiency: HeLa cells were seeded into 12-well cell-culture treated plates at a final density of 15×10^4 cells/well in DMEM supplemented with 10% FBS and 1% penicillin/streptomycin and incubated overnight at 37° ° C. and 5% CO2. After 24 h, the media was aspirated followed by washing the cells three times with warm DPBS. Peptides were diluted to a final concentration of 5 μM in DMEM containing 10% FBS with 1% penicillin/streptomycin, added to each well and then incubated for 2 h at 37° C. and 5% CO2. After 2 h, treatment media was aspirated and the cells were washed three times with ice-cold DPBS. Cells were removed from the plate via treatment with trypsin/EDTA and then harvested in ice-cold DPBS followed by centrifugation at ×300 RCF, 4° C. for 5 min. Cells were resuspended in DPBS and quantified using a BD Biosciences LSR II flow cytometer and gated using FlowJo. Values for uptake are provided as a percentage relative to positive control, CPP9 ([cyclo-fΦRrRrQ]-miniPEG-K[NF]).
as §2, with “Cellular Uptake. HeLa cells” for “Cellular Uptake Efficiency: HeLa cells”, “at 37° C. and” for “at 37° ° C. and”, “37° C. with 5% CO2.” for “37° C. and 5% CO2.”, “centrifugation at 300 g, 4° C.” for “centrifugation at ×300 RCF, 4° C.”, “control, CPP9 ([cyclo-fΦRrRrQ]-miniPEG-K[NF]), which has a 62% cytosolic entry efficiency. PGD97 entered HeLa cells at 60% efficiency relative to CPP9, corresponding to an absolute cytosolic entry efficiency of ˜36% (FIG. 9).” for “control, CPP9 ([cyclo-fΦRrRrQ]-miniPEG-K[NF]).”
On the technique in general: In flow cytometry, cells or beads pass a laser one at a time.

Data set [1] has as its target T4, CAL PDZ domain (CALP5-His) (Homo sapiens, UniProt Q9HD26).
T4 construct: His
Description: Direct fluorescence polarization binding of labeled peptide, Condition C. The procedure: Condition C (denoted with superscript ^C): 50 nM labeled peptide was incubated with 2 mM TCEP in PBS at pH 7.4 containing 0.01% Triton-X100. CALP5-His was serially diluted in PBS containing 0.01% Triton-X100 to which was then added the peptide and TCEP solution. This solution was mixed for 1 h at RT then 20 uL was pipetted into 384-well microplates and fluorescence polarization was measured using a TECAN Infinite M1000 plate reader. KD values were calculated using KaleidaGraph v. 3.6 using the equation: […]
as §1

Data set [2] concerns the target T4, CAL PDZ domain (CALP5-His). Description: FP-based competition assay, Condition B (probe FAM-[…]-OH). Particulars: for IC50: 500 nM CALP5-His, 5 mM DTT. The data set is classed as binding. The procedure: Serial dilutions of each competitor peptide were prepared in PBS and the incubation solution was added to each. The combined solutions were gently mixed for 1 h at RT after which 20 uL sample was pipetted into 384-well black-on-black microplates and fluorescence polarization was measured using a TECAN Infinite M1000 plate reader. Data was processed to determine IC50 using GraphPad PRISM ver. 6.0.

For the next data set, the system named is HCT116 cell spheroids. The experiment in a line: Intracellular stability by MALDI imaging. The data set is classed as in vitro ADME. As to conditions: after 4 or 24 h incubation with PGD97. The procedure: Intracellular Stability. PGD97 ([…]) was added to HCT116 cell spheroids in RPMI-1640 medium supplemented with 10% FBS and 1% penicillin/streptomycin and incubated for 4 or 24 h. After incubation, spheroids were washed 3× with DPBS, quickly frozen, embedded in a solid support, and cryo-sectioned. Prior to analysis, sinapinic acid was sublimed onto individual slides. The sample was imaged using a Bruker ultrafleXtreme MALDI-TOF-TOF and analyzed for the presence of proteolytic degradation fragments. Heatmaps, scaled relative to the most intense signal, were generated for the intact peptide (both 29 and 32) as well as ˜20 potential proteolytic fragments at each time point. […] A degradation fragment (#1) corresponding to proteolytic cleavage between Thr and Arg (FIG. 8B) was observed, but none of the other potential degradation products were observed. […] Most importantly, significant concentrations of intact peptide 29 was still present inside the cells after 24 h.

A further data set deals with LC3-II. The experiment in a line: Autophagy in macrophages, western blotting for LC3-II. It is filed as cell-based, human. As to conditions: 10 μM, ΔF508 CFTR macrophages. The procedure: Effect on Autophagy in Macrophage. Human primary ΔF508 CFTR macrophages were incubated with 10 μM VX809 (n=1) or 100 nM PGD97 (n=2) for 48 h in complete growth medium supplemented with 10% FBS and 1% penicillin/streptomycin at 37° C. Induction of autophagy was determined via western blotting for autophagy-associated protein LC3-II.
Background: A western blot detects proteins with antibodies after separation by electrophoresis.

The nature of data set [3]: HCT116 cell spheroids in RPMI-1640 medium supplemented with 10% FBS and 1% penicillin/streptomycin. As to conditions: up to 24 h.
[4] abbreviates: 50 nM FITC-labeled peptide, FP, read-out: KD (nM) N1P1.
Setting [5] is: 50 nM FITC-labeled peptide, FP, read-out: KD (nM) CALP.
Where [6] appears, read: Condition B (superscript b): 100 nM probe FAM-ANSRWPTSII-OH.
The mark [7] stands for this setting: FITC-labeled peptide, FP, read-out: Affinity (KD).

A word on the IC50: it is the point on the concentration scale where inhibition reaches its midpoint. Read a low IC50 as greater potency in that assay.

Like-named read-outs stand apart in the source and are kept apart here. Where a SMILES comes first, the peptide text is derived from it. [ ]: non-standard residue; d: D form. The star is where a group is joined. X1 = O=C(O)c1cc(NC(=S)*)ccc1C1c2ccc(O)cc2Oc2cc(O)ccc21; 2Nal = N[C@@H](Cc1ccc2ccccc2c1)C(=O)O; Bta = N[C@@H](Cc1csc2ccccc12)C(=O)O; Pen = CC(C)(S)[C@H](N)C(=O)O; Tle = CC(C)(C)[C@H](N)C(=O)O; Pip = O=C(O)[C@@H]1CCCCN1; AEEA = NCCOCCOCC(=O)O Where only a bound is given, the exact number is not on record here.

T1 sequence (Q15599 150-230 limits assumed): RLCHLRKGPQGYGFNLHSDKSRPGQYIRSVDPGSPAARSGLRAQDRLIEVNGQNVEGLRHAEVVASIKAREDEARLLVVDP
T2 sequence (Q15599 11-90 limits assumed): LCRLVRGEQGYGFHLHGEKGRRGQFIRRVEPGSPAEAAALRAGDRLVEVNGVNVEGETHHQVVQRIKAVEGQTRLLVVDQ

Take `CC(=O)N[C@@H](CS)C(=O)N[C@H](CCCNC(=N)N)C(=O)N[C@@H](CCCNC(=N)N)C(=O)N[C@@H](CCCNC(=N)N)C(=O)N[C@@H](Cc1ccc2ccccc2c1)C(=O)N[C@@H](Cc1c[nH]c2ccccc12)C(=O)N[C@@H](CCC(N)=O)C(=O)N[C@H](C(=O)N[C@H](C(=O)N[C@@H](CCCNC(=N)N)C(=O)N[C@H](C(=O)O)C(C)(C)C)[C@@H](C)O)C(C)(C)S` [Compound 20, Ac-Cys-(D-Arg)-Arg-Arg-(2-Nal)-Trp-Gln-Pen-Thr-Arg-Tle-OH] (Ac-C[dR]RR[2Nal]WQ[Pen]TR[Tle]-OH): the Kd is 4970 ± 890 nM at NHERF2-PDZ2 (N2P2); 2980 ± 150 nM at NHERF2-PDZ1 (N2P1); 1640 ± 150 nM on NHERF1-PDZ1 (N1P1) (setting [4]); 110 nM in [1] (setting [5]); roughly 50 nM in [1] (FITC-labeled peptide 20, FP, read-out: KD for CAL PDZ domain (FIG. 3A)). The “Uptake (% rel.)” value in the data set with HeLa cells was determined as 28 ± 1%. This compound had an IC50 in data set [2] (Condition B (superscript b): 100 nM probe FAM-[…]-OH) of 165 nM.
For the compound `CC(=O)N[C@@H](CS)C(=O)N[C@H](CCCNC(=N)N)C(=O)N[C@H](CCCNC(=N)N)C(=O)N[C@@H](CCCNC(=N)N)C(=O)N[C@@H](Cc1ccc2ccccc2c1)C(=O)N[C@@H](Cc1c[nH]c2ccccc12)C(=O)N[C@@H](CCC(N)=O)C(=O)N[C@H](C(=O)N[C@H](C(=O)N[C@@H](CCCNC(=N)N)C(=O)N[C@H](C(=O)O)C(C)(C)C)[C@@H](C)O)C(C)(C)S` [Compound 21, Ac-Cys-(D-Arg)-(D-Arg)-Arg-(2-Nal)-Trp-Gln-Pen-Thr-Arg-Tle-OH] (Ac-C[dR][dR]R[2Nal]WQ[Pen]TR[Tle]-OH), in the data set on HeLa cells, the “Uptake (% rel.)” value is reported as 23 ± 4%. For the same compound, the IC50 in data set [2] (setting [6]) was 270 nM.
Consider `CC(=O)N[C@@H](CS)C(=O)N[C@H](CCCNC(=N)N)C(=O)N[C@@H](CCCNC(=N)N)C(=O)N[C@@H](CCCNC(=N)N)C(=O)N[C@@H](Cc1ccc2ccccc2c1)C(=O)N[C@@H](Cc1c[nH]c2ccccc12)C(=O)N[C@H](C(=O)N[C@H](C(=O)N[C@H](C(=O)N[C@@H](CCCNC(=N)N)C(=O)N[C@H](C(=O)O)C(C)(C)C)[C@@H](C)O)C(C)(C)C)C(C)(C)S` [Compound 24, Ac-Cys-(D-Arg)-Arg-Arg-(2-Nal)-Trp-Pen-Tle-Thr-Arg-Tle-OH] (Ac-C[dR]RR[2Nal]W[Pen][Tle]TR[Tle]-OH), for which the “Uptake (% rel.)” value with HeLa cells came out at 92%. The “cell-permeability, fold higher” value in the data set on HeLa cells (relative to peptide 22) is 4 fold. The IC50 in [2] (setting [6]) is 380 nM. Also, the “decrease of CAL binding” value in data set [2] (relative to peptide 22) is roughly 2 fold.
`CC(=O)N[C@@H](CS)C(=O)N[C@H](CCCNC(=N)N)C(=O)N[C@@H](CCCNC(=N)N)C(=O)N[C@@H](CCCNC(=N)N)C(=O)N[C@@H](Cc1ccc2ccccc2c1)C(=O)N[C@@H](Cc1csc2ccccc12)C(=O)N1CCCC[C@H]1C(=O)N[C@H](C(=O)N[C@H](C(=O)N[C@@H](CCCNC(=N)N)C(=O)N[C@H](C(=O)O)C(C)(C)C)[C@@H](C)O)C(C)(C)S` [Compound 29, Ac-Cys-(D-Arg)-Arg-Arg-Nal-Bta-Pip-Pen-Thr-Arg-Tle-OH] (Ac-C[dR]RR[2Nal][Bta][Pip][Pen]TR[Tle]-OH): the Kd was 780 to 7480 nM at NHERF1-PDZ1 (N1P1) (range over N1P1, N2P1 and N2P2, read-out: KD values for NHERF1/2 PDZ domains); 6 ± 3 nM in data set [1] (setting [5]); 6 nM in data set [1] (setting [7]). For the same compound, the “presence of intact peptide in spheroids” value in the data set on HCT116 cell spheroids is listed as “High concentrations”. For the same compound, the “improvement of CAL PDZ-binding affinity” value in [1] (Pip for Pro) was roughly 15 fold. Moreover, the “selectivity for CAL vs NHERF PDZ domains” value in [1] (ratio of KD values, NHERF1/2 PDZ domains vs CAL PDZ) is reported as no less than 130 fold.
As to `C[C@@H](O)[C@H](NC(=O)[C@@H](NC(=O)[C@@H]1CCCCN1C(=O)[C@H](Cc1csc2ccccc12)NC(=O)[C@H](Cc1ccc2ccccc2c1)NC(=O)[C@H](CCCNC(=N)N)NC(=O)[C@H](CCCNC(=N)N)NC(=O)[C@@H](CCCNC(=N)N)NC(=O)[C@H](CS)NC(=O)COCCOCCNC(=S)Nc1ccc(C2c3ccc(O)cc3Oc3cc(O)ccc32)c(C(=O)O)c1)C(C)(C)S)C(=O)N[C@@H](CCCNC(=N)N)C(=O)N[C@H](C(=O)O)C(C)(C)C` [Compound 29-FITC, FITC-miniPEG-Cys-(D-Arg)-Arg-Arg-Nal-Bta-Pip-Pen-Thr-Arg-Tle-OH] ({X1-AEEA}-C[dR]RR[2Nal][Bta][Pip][Pen]TR[Tle]-OH), the Kd amounted to 7480 ± 580 nM on NHERF2-PDZ2 (N2P2); 1370 ± 380 nM on NHERF2-PDZ1 (N2P1); 780 ± 10 nM at NHERF1-PDZ1 (N1P1) (setting [4]); 6 ± 3 nM in data set [1] (setting [5]); 6 ± 3 nM in data set [1] (setting [7]).
As for `CC(C)(CO)c1cc2cc(NC(=O)C3(c4ccc5c(c4)OC(F)(F)O5)CC3)c(F)cc2n1C[C@@H](O)CO` [VX661, Tezacaftor, reference compound], the LC3-II protein levels entry in the data set on LC3-II is given as “also effective”.
Regarding “Ac-Cys-(D-Arg)-Arg-Arg-Nal-Bta-Pip-Pen-Thr-Arg-Tle-OH”, the cleaved bond entry in [3] is “Thr-Arg”.
